The source of these data is patent US11639350B2, “Heteroaryldihydropyrimidine derivatives and methods of treating hepatitis B infections” (Janssen Pharmaceutica NV, priority 2018, dated 2023).

Where two headings read alike, the source gives them in different places.

In general, EC50 refers to the concentration that produces a half-maximal response. In general, CC50 refers to the concentration at which the toxic effect on the cells reaches its halfway point. A high value points to better tolerance by the cells.

What all share (format): cell-based
Series [1] deals with HBV. As to the kind of experiment: HBV inhibitory activity: HBV DNA in the culture medium of HepG2.2.15 cells by q-PCR. As to conditions: HepG2.2.15 cells, 6 days of compound treatment, HBV DNA in culture medium by q-PCR, highest concentration 10 μM, read-out: EC50. The procedure, abridged: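 Supernatant HBV DNA quantified by q-PCR after a 6-day compound exposure, with one mid-course medium change, of HepG2.2.15 cells (stably integrated HBV; 40,000 per well, 2% FBS). Eight-point 3-fold series topped at 10 μM for antiviral EC50; separate plates of 5,000 cells per well with 100 μM top give CC50.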

Series [2] has as its system HepG2.2.15 cells. As to the kind of experiment: Cytotoxicity determination in HepG2.2.15 cells (CCK-8). The following applies: 6 days of compound treatment, CCK-8, highest concentration 100 μM. The method in brief:
(§1)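 CC50 is from CCK-8 absorbance (450 nm, 630 nm reference) after 2.5 h with reagent. Before that, compounds were applied for six days, top concentration 100 μM, eight threefold dilutions, one mid-course medium change, to stably HBV-integrated HepG2.2.15 cells plated at 5,000/well in 2% FBS.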

Experiment in series [3]: as above
As to conditions: human, 6 days of compound treatment, CCK-8, highest concentration 100 μM. The method in brief:
as §1

Setting [4] is: Hepatitis B virus, HepG2.2.15, 144 h.

With `COC(=O)C1=C(C2C[C@@H]3CN(S(C)(=O)=O)C[C@@H]3C2)NC(c2nccs2)=NC1c1ccc(F)cc1Cl` (single isomer, unassigned) [Compound 176D, Methyl 4-(2-chloro-4-fluorophenyl)-6-((cis)-2-(methylsulfonyl)-octahydrocyclopenta[c]pyrrol-5-yl)-2-(thiazol-2-yl)-1,4-dihydropyrimidine-5-carboxylate], the EC50 in series [1] (setting [4]) turned out to be 700 nM. In series [2], this compound showed a CC50 of 11 µM.
With `COC(=O)C1=C(C2CCN(S(C)(=O)=O)CC2)NC(c2nccs2)=NC1c1ccc(F)cc1Br` (single isomer, unassigned) [Compound 120B, Methyl 4-(2-bromo-4-fluorophenyl)-6-(1-(methylsulfonyl)-piperidin-4-yl)-2-(thiazol-2-yl)-1,4-dihydropyrimidine-5-carboxylate], the EC50 in series [1] is 154 nM. Moreover, the CC50 in series [2] amounted to 16.3 µM.
As for `COC(=O)C1=C(C2CCN(S(=O)(=O)C3CC(O)C3)CC2)NC(c2nccs2)=NC1c1ccc(F)cc1Cl` (single isomer, unassigned) [Compound 335B, Methyl 4-(2-chloro-4-fluorophenyl)-6-(1-((3-hydroxycyclobutyl)sulfonyl)piperidin-4-yl)-2-(thiazol-2-yl)-1,4-dihydropyrimidine-5-carboxylate], the EC50 in series [1] is 13 nM. In series [2], this compound gave a CC50 of 15.2 µM.
In the case of `CCOC(=O)C1=C(C2CCN(S(=O)(=O)[C@H]3C[C@](C)(C(=O)O)C3)CC2)NC(c2nccs2)=NC1c1ccc(F)c(F)c1Cl` (stereo partly drawn) [Compound 270A, (trans)-3-((4-(6-(2-Chloro-3,4-difluorophenyl)-5-(ethoxycarbonyl)-2-(thiazol-2-yl)-3,6-dihydropyrimidin-4-yl)piperidin-1-yl)sulfonyl)-1-methylcyclobutanecarboxylic Acid], the 50% effective concentration (EC50) in series [1] came out at 12 nM. For the same compound, in series [2], the CC50 turned out to be 9.2 µM.
For `CCOC(=O)C1=C(C2CCN(S(=O)(=O)C3CC(C)(C(=O)O)C3)CC2)NC(c2nccs2)=NC1c1ccc(F)cc1Br` (single isomer, unassigned) [Compound 282D, (cis)-3-((4-(6-(2-Bromo-4-fluorophenyl)-5-(ethoxycarbonyl)-2-(thiazol-2-yl)-3,6-dihydropyrimidin-4-yl)piperidin-1-yl)sulfonyl)-1-methylcyclobutanecarboxylic Acid], in series [1], the EC50 amounted to 39 nM. In series [2], this compound registered a CC50 of 11.2 µM.
For `COC(=O)C1=C(C2CCC(NS(C)(=O)=O)C2)NC(c2nccs2)=NC1c1cccc(F)c1Cl` (single isomer, unassigned) [Compound 61D, Methyl 4-(2-chloro-3-fluorophenyl)-6-(3-(methylsulfonamido)-cyclopentyl)-2-(thiazol-2-yl)-1,4-dihydropyrimidine-5-carboxylate] the same measures were 35 nM and 33.4 µM.
`COC(=O)C1=C(C2CCN(S(=O)(=O)C3CC(C)(C(=O)O)C3)CC2)NC(c2nccs2)=NC1c1cccc(F)c1Br` (stereo not drawn) [Compound 278C, (trans)-3-((4-(6-(2-bromo-3-fluorophenyl)-5-(methoxycarbonyl)-2-(thiazol-2-yl)-3,6-dihydropyrimidin-4-yl)piperidin-1-yl)sulfonyl)-1-methylcyclobutanecarboxylic Acid]: the EC50 in series [1] is 45 nM. Also, the CC50 in series [2] was determined as 18.9 µM.
Regarding `COC(=O)C1=C(C2CCN(C)C(=O)C2)NC(c2nccs2)=NC1c1ccc(F)cc1Cl` (single isomer, unassigned) [Compound 1B, Methyl 4-(2-chloro-4-fluorophenyl)-6-(1-methyl-2-oxopiperidin-4-yl)-2-(thiazol-2-yl)-1,4-dihydropyrimidine-5-carboxylate], the EC50 in series [1] was 96 nM. This compound also registered a CC50 in series [2] of 13.6 µM.
As for `CCOC(=O)C1=C(C2CCN(S(=O)(=O)C3CC(C)(C(=O)O)C3)CC2)NC(c2nccs2)=NC1c1cccc(F)c1C` (single isomer, unassigned) [Compound 429D, (cis)-3-((4-(−5-(Ethoxycarbonyl)-6-(3-fluoro-2-methylphenyl)-2-(thiazol-2-yl)-3,6-dihydropyrimidin-4-yl)piperidin-1-yl)sulfonyl)-1-methylcyclobutanecarboxylic Acid], the EC50 in series [1] stood at 49 nM. The same compound gave a cytotoxic concentration (CC50) in series [2] of 16 µM.
For `COC(=O)C1=C(C2CCCC(C(=O)O)CC2)NC(c2nccs2)=NC1c1ccc(F)cc1Cl` (single isomer, unassigned) [Compound 95E, 4-(6-(2-Chloro-4-fluorophenyl)-5-(methoxycarbonyl)-2-(thiazol-2-yl)-3,6-dihydropyrimidin-4-yl)cycloheptanecarboxylic Acid], the EC50 in series [1] stood at 141 nM. This compound also gave a CC50 in series [2] of 75 µM.
Take `COC(=O)C1=C(C2CCN(S(N)(=O)=O)CC2)NC(c2nccs2)=NC1c1ccc(F)c(F)c1Cl` (stereo not drawn) [Compound 416B]: the EC50 in series [1] is 6 nM. Half-maximal cytotoxicity in series [2] (CC50) was put at 13.5 µM.
`CCOC(=O)C1=C([C@@H]2CC[C@H](C(=O)O)OC2)NC(c2nccs2)=NC1c1ccc(F)cc1Cl` (single isomer, unassigned) [Compound 265H, (cis)-5-(−6-(2-Chloro-4-fluorophenyl)-5-(ethoxycarbonyl)-2-(thiazol-2-yl)-3,6-dihydropyrimidin-4-yl)tetrahydro-2H-pyran-2-carboxylic Acid]: the EC50 in series [1] was found to be 214 nM. Further, in series [2], the CC50 is above 100 µM.
For `CCOC(=O)C1=C(C2CCN(S(=O)(=O)C3CC(C)(C(=O)O)C3)CC2)NC(c2nccs2)=NC1c1cccc(F)c1Br` (single isomer, unassigned) [Compound 414C, (trans)-3-((4-(6-(2-Bromo-3-fluorophenyl)-5-(ethoxycarbonyl)-2-(thiazol-2-yl)-3,6-dihydropyrimidin-4-yl)piperidin-1-yl)sulfonyl)-1-methylcyclobutanecarboxylic Acid] the same measures were 19 nM and 17.3 µM.
On to `CCOC(=O)C1=C(C2CCN(S(=O)(=O)C3CC(C(=O)O)C3)CC2)NC(c2nccs2)=NC1c1ccc(F)c(F)c1Br` (stereo in doubt) [Compound 199B, (trans)-3-((4-(6-(2-bromo-3,4-difluorophenyl)-5-(ethoxycarbonyl)-2-(thiazol-2-yl)-3,6-dihydropyrimidin-4-yl)piperidin-1-yl)sulfonyl)cyclobutanecarboxylic Acid], for which the EC50 in series [1] (setting [4]) was below 4.6 nM. In series [3], this compound gave a CC50 at 6 days of 14.2 µM.
As for `COC(=O)C1=C(C2CCN(S(=O)(=O)[C@@H]3CC[C@H](C(=O)O)C3)CC2)NC(c2nccs2)=NC1c1ccc(F)cc1Cl` (relative stereo) [Compound 311B, (cis)-3-((4-(6-(2-Chloro-4-fluorophenyl)-5-(methoxycarbonyl)-2-(thiazol-2-yl)-3,6-dihydropyrimidin-4-yl)piperidin-1-yl)sulfonyl)-cyclopentanecarboxylic Acid], in series [1] (setting [4]), the EC50 was 97 nM. The compound also came in with a half-maximal cytotoxic concentration (CC50) at 6 days in series [3] above 100 µM.
Turning to `COC(=O)C1=C([C@H]2CC[C@@H](C(=O)OC)O2)NC(c2nccs2)=NC1c1cccc(F)c1Cl` (single isomer, unassigned) [Compound 73H, cis-Methyl 4-(2-chloro-3-fluorophenyl)-6-(5-(methoxycarbonyl)-tetrahydro-furan-2-yl)-2-(thiazol-2-yl)-1,4-dihydropyrimidine-5-carboxylate], in series [1] (setting [4]), the EC50 amounted to 350 nM. The compound further came in with a CC50 at 6 days in series [3] of 32.9 µM.
Regarding `CCOC(=O)C1=C(C2CCN(S(=O)(=O)[C@H]3C[C@H](C(=O)O)C3)CC2)NC(c2nccs2)=NC1c1cccc(F)c1Br` (relative stereo) [Compound 339B, (trans)-3-((4-(6-(2-Bromo-3-fluorophenyl)-5-(ethoxycarbonyl)-2-(thiazol-2-yl)-3,6-dihydropyrimidin-4-yl)piperidin-1-yl)sulfonyl)cyclobutanecarboxylic Acid], the EC50 in series [1] (setting [4]) was determined as 10 nM. In series [3], this compound showed a CC50 at 6 days of 13.4 µM.
Take `COC(=O)C1=C(C2CCN(S(=O)(=O)CC(=O)O)CC2)NC(c2nccs2)=NC1c1ccc(F)cc1Cl` (stereo not drawn) [Compound 107, 2-((4-(6-(2-Chloro-4-fluorophenyl)-5-(methoxycarbonyl)-2-(thiazol-2-yl)-3,6-dihydropyrimidin-4-yl)piperidin-1-yl)sulfonyl)acetic Acid]: the EC50 in series [1] (setting [4]) was determined as 248 nM. In series [3], this compound displayed a CC50 at 6 days of 51.4 µM.
In the case of `COC(=O)C1=C([C@H]2C[C@H](NS(C)(=O)=O)C2)NC(c2nccs2)=NC1c1ccc(F)cc1Cl` (single isomer, unassigned) [Compound 206B, (trans)-Methyl 4-(2-chloro-4-fluorophenyl)-6-(3-(methylsulfonamido)cyclobutyl)-2-(thiazol-2-yl)-1,4-dihydropyrimidine-5-carboxylate], in series [1] (setting [4]), the EC50 was found to be 108 nM. Also, the CC50 at 6 days in series [3] came out at 26.1 µM.
For `CCOC(=O)C1=C(C2CCN(S(=O)(=O)[C@H]3C[C@H](C(=O)O)C3)CC2)NC(c2ncc(F)cc2F)=NC1c1ccc(F)c(F)c1Cl` (stereo partly drawn) [Compound 352B] the same measures were 11 nM and 29.4 µM.
`COC(=O)C1=C(C2CCCN(S(C)(=O)=O)CC2)NC(c2nccs2)=NC1c1ccc(F)cc1Cl` (single isomer, unassigned) [Compound 383A, Methyl 4-(2-chloro-4-fluorophenyl)-6-(1-(methylsulfonyl)azepan-4-yl)-2-(thiazol-2-yl)-1,4-dihydropyrimidine-5-carboxylate]: the EC50 in series [1] (setting [4]) was found to be 87 nM. In series [3], this compound yielded a CC50 at 6 days of 32.9 µM.
